Patent EP0234946A2, “New compounds” (THE WELLCOME FOUNDATION LIMITED, priority 1986, dated 1987)

target: T1, angiotensin converting enzyme (Cavia porcellus, UniProt H0UWL7); test: angiotensin converting enzyme inhibition in guinea pig ileum (inhibition of contractile responses to Angiotensin I); conditions: dose-dependent inhibition of contractile responses to Angiotensin I, read-out: EC50 (the source's name)
T1 construct: from tissue; host or cells: guinea pig ileum
T1 sequence (H0UWL7 33-1302): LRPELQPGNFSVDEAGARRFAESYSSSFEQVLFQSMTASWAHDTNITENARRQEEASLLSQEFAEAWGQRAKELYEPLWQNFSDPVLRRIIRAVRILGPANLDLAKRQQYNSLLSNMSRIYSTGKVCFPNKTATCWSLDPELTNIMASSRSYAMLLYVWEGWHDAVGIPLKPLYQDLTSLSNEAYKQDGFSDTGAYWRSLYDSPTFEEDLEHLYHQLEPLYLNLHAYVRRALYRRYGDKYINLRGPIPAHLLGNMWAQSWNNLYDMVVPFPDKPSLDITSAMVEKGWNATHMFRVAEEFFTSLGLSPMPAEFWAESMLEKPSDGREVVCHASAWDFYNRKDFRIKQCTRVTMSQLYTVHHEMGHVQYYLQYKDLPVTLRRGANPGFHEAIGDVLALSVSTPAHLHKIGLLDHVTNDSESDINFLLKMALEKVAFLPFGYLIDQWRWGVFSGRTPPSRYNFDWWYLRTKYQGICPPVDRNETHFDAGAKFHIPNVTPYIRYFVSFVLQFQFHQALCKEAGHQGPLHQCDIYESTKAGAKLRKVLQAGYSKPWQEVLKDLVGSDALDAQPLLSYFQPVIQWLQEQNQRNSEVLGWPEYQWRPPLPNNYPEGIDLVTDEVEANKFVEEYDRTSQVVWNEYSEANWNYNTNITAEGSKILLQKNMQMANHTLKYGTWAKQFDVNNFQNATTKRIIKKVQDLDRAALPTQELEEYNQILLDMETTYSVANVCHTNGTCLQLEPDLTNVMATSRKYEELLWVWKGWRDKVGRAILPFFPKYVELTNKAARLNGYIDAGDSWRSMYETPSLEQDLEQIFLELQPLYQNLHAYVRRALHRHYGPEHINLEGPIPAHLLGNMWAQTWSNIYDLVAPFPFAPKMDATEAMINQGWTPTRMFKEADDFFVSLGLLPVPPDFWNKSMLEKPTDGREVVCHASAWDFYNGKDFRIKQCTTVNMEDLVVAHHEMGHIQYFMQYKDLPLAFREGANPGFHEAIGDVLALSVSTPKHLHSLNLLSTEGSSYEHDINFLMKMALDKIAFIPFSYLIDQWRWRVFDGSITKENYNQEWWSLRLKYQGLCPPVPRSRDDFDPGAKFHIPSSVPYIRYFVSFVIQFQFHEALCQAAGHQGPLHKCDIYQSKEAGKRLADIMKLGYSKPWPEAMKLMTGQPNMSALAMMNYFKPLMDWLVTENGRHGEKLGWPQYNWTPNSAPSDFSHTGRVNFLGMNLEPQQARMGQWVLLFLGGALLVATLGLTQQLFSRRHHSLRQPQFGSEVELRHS
Source text: (b) ACE inhibition in vitro
In an assay for angiotensin converting enzyme inhibition in guinea pig ileum, dose-dependent inhibition of contractile responses to Angiotensin I gave the following results: […]

Row | IC50 [nM] | Structure (SMILES)
1 | 13.5 | CC(C)NCC(O)COc1cccc2cc(C(=O)NCCCC[C@H](NC(C)C(=O)N3CCC[C@H]3C(=O)O)C(=O)O)ccc12 (stereo partly drawn) [Example 2, N-(1(S)-Carboxy-5-[5-(2,(R,S)-hydroxy-3-isopropylaminopropoxy)naphth-2-ylcarboxamido]pentyl)-(R,S)-alanyl-(S)-proline bistrifluoroacetate]
2 | 1.4 | CC(C)NC[C@H](O)COc1cccc2[nH]c(C(=O)NCCCC[C@H](N[C@@H](C)C(=O)N3CCC[C@H]3C(=O)O)C(=O)O)cc12 [Example 1, N-(1(S)-Carboxy-5-[4-(2(S)-hydroxy-3-isopropylaminopropoxy)-1H-indol-2-ylcarboxamido]pentyl)-(S)-alanyl-(S)-proline]
3 | 10.3 | CC(C)NCC(O)COc1cccc2ccc(C(=O)NCCCC[C@H](NC(C)C(=O)N3CCC[C@H]3C(=O)O)C(=O)O)cc12 (stereo partly drawn) [Example 3, N-(1(S)-Carboxy-5-[8-(2(R,S)-hydroxy-3-isopropylaminopropoxy)naphth-2--ylcarboxamido]pentyl)-(R,S)-alanyl-(S)-proline bistrifluoroacetate]
